Experimental data from patent publication US10517889B2, “Modulators of SMAD7 expression” (Ionis Pharmaceuticals, Inc., priority 2017, dated 2019).
Strand notation (5' to 3'): a small letter for the sugar, then the base; units joined by * are phosphorothioate-linked, units joined directly phosphodiester-linked; [ ] holds rarer units or linkages, { } end groups; capitals alone tell only the bases. e = 2'-O-(2-methoxyethyl) (MOE); [5mC] = 5-methylcytosine; d = 2'-deoxy (DNA)

Test system: human SMAD7 mRNA
Assay: Antisense inhibition of human SMAD7 mRNA expression in Hep3B cells by 5-10-5 MOE gapmers, single concentration, electroporation, RT-PCR (Example 1, Study 1 and 2)
Format: cell-based
Conditions: for % Inhibition: Study 2, electroporation with 15,000 nM antisense oligonucleotide; for % Inhibition of SMAD7 mRNA: electroporation with 15,000 nM antisense oligonucleotide (Study 2)
In short: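 Hep3B cells (20,000/well) electroporated with 5-10-5 MOE gapmer at 5,000 nM or 15,000 nM for approximately 24 h. SMAD7 mRNA quantified by real-time PCR with primer probe set RTS5062 and normalized to RIBOGREEN total RNA. Values are percent inhibition relative to untreated controls.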

[1] = 5-10-5 MOE gapmers targeting SEQ ID NO: 1 and 2
[2] = electroporation, 5,000 nM, approximately 24 hours, relative to untreated control cells, gapmers targeting SEQ ID NO: 1 and 2
[3] = electroporation, 15,000 nM, approximately 24 hours, relative to untreated control cells, gapmers targeting SEQ ID NO: 1 and 2
[4] = electroporation, 15,000 nM antisense oligonucleotide (Study 2), 5-10-5 MOE gapmers targeting SEQ ID NO: 1 and 2

Substance	% Inhibition [1]	% inhibition of SMAD7 mRNA expression [4]	other results
771779 (antisense eA*e[5mC]*eA*e[5mC]*eA*d[5mC]*dT*dG*d[5mC]*dT*dG*d[5mC]*d[5mC]*dT*dT*eT*eT*e[5mC]*eT*e[5mC]) [compound 771779]	33%		% inhibition of SMAD7 mRNA expression [2]: 53%
771780 (antisense eA*e[5mC]*eA*eA*eA*d[5mC]*d[5mC]*dT*dT*d[5mC]*d[5mC]*dG*dA*dA*dA*eG*eG*eA*e[5mC]*e[5mC]) [compound 771780]	20%		
771781 (antisense eA*eA*eA*eA*eA*dA*dA*dG*d[5mC]*d[5mC]*d[5mC]*dA*d[5mC]*d[5mC]*d[5mC]*eA*eT*e[5mC]*eG*eG) [compound 771781]			% inhibition of SMAD7 mRNA expression [3]: 10%
771783 (antisense e[5mC]*e[5mC]*e[5mC]*eT*eT*d[5mC]*dA*dG*dA*dG*dA*dG*dT*d[5mC]*dA*e[5mC]*eT*eG*e[5mC]*eT) [compound 771783]	49%		
771784 (antisense eT*eA*eA*eA*eT*d[5mC]*dA*dA*dG*dA*dG*d[5mC]*dT*dG*dA*eA*eA*eT*eT*e[5mC]) [compound 771784]		0%	% Inhibition of SMAD7 mRNA [1]: 1%
771785 (antisense eA*e[5mC]*eT*eT*eT*dG*dA*dA*dG*d[5mC]*d[5mC]*dT*dT*dT*dG*eG*eA*eA*eT*eT) [compound 771785]		12%	
771787 (antisense eA*eA*eG*eA*eA*dG*dA*dA*dG*dG*dA*dG*d[5mC]*dT*d[5mC]*eA*eA*eA*e[5mC]*eT) [compound 771787]	27%		% inhibition of SMAD7 mRNA expression [2]: 0%
771789 (antisense e[5mC]*e[5mC]*e[5mC]*eA*eA*dA*dA*d[5mC]*dA*dG*dT*dG*dT*dA*d[5mC]*e[5mC]*e[5mC]*eT*e[5mC]*e[5mC]) [compound 771789]			% inhibition of SMAD7 mRNA expression [3]: 30%
771790 (antisense e[5mC]*eA*eA*eA*eA*d[5mC]*dT*d[5mC]*dT*d[5mC]*dT*dG*d[5mC]*d[5mC]*d[5mC]*eT*eG*eG*eA*e[5mC]) [compound 771790]	36%		
771791 (antisense eG*eA*eG*eG*eA*dG*dG*dG*dA*dG*dA*dA*dA*d[5mC]*dT*e[5mC]*e[5mC]*eT*e[5mC]*eA) [compound 771791]	22%		
771792 (antisense eA*eG*e[5mC]*eA*e[5mC]*dA*d[5mC]*d[5mC]*d[5mC]*d[5mC]*dA*d[5mC]*d[5mC]*d[5mC]*d[5mC]*e[5mC]*eA*e[5mC]*e[5mC]*eT) [compound 771792]		2%	% Inhibition of SMAD7 mRNA [1]: 33%
771796 (antisense eG*eT*eT*eT*eG*d[5mC]*dG*d[5mC]*dA*d[5mC]*dG*dG*dG*dA*dT*eT*eG*eT*e[5mC]*eT) [compound 771796]	16%		
771798 (antisense eG*eA*e[5mC]*eA*e[5mC]*dA*dT*d[5mC]*d[5mC]*dA*dT*dG*dT*d[5mC]*d[5mC]*eA*eA*eG*e[5mC]*eA) [compound 771798]	17%		
771800 (antisense eG*eA*e[5mC]*eA*eG*d[5mC]*dA*dG*dA*d[5mC]*dA*dG*dG*d[5mC]*dA*eA*eA*eA*eT*eG) [compound 771800]		12%	% Inhibition of SMAD7 mRNA [1]: 32%
771801 (antisense eA*e[5mC]*e[5mC]*eT*eA*d[5mC]*dA*dA*d[5mC]*dT*d[5mC]*dA*d[5mC]*dA*dA*eG*eG*eG*eA*eG) [compound 771801]		31%	
771802 (antisense e[5mC]*e[5mC]*eT*eT*eG*dA*dG*dA*dT*d[5mC]*d[5mC]*dA*dT*dG*dG*eG*eA*eG*e[5mC]*eA) [compound 771802]		40%	
771803 (antisense eA*eT*eG*eG*eA*dT*dA*d[5mC]*dT*dG*dA*d[5mC]*dT*d[5mC]*dA*eA*eG*eG*eA*e[5mC]) [compound 771803]	39%		% inhibition of SMAD7 mRNA expression [2]: 22%
771804 (antisense eG*eA*e[5mC]*eA*eG*dA*dT*dG*d[5mC]*d[5mC]*dA*dG*d[5mC]*dA*dA*eG*eG*eA*eT*e[5mC]) [compound 771804]	17%		
771805 (antisense eG*eA*eT*eT*eA*dT*dA*dT*dA*dG*dG*dT*dA*dT*dT*eT*eT*eT*eG*eA) [compound 771805]			% inhibition of SMAD7 mRNA expression [3]: 0%
771806 (antisense eA*e[5mC]*eA*eA*eT*dG*dA*dA*dT*dA*dA*dT*dT*dG*dT*eT*e[5mC]*eA*e[5mC]*eG) [compound 771806]	0%		

Substance	% Inhibition [1]	% inhibition of SMAD7 mRNA expression [4]	other results
771807 (antisense eG*e[5mC]*e[5mC]*e[5mC]*eT*d[5mC]*dA*d[5mC]*dT*d[5mC]*d[5mC]*dA*d[5mC]*dA*dA*eT*eG*eG*e[5mC]*eA) [compound 771807]	51%		
771809 (antisense eA*e[5mC]*e[5mC]*eT*eG*dA*dG*dT*d[5mC]*d[5mC]*d[5mC]*d[5mC]*d[5mC]*dA*dA*eA*eG*eT*e[5mC]*e[5mC]) [compound 771809]		7%	
771810 (antisense eG*eG*e[5mC]*eA*e[5mC]*dT*dG*d[5mC]*dA*dG*dA*dA*dG*dA*dG*eG*e[5mC]*eG*eG*eG) [compound 771810]		46%	
771811 (antisense eT*eG*e[5mC]*e[5mC]*eT*d[5mC]*dA*dT*dT*d[5mC]*dT*dT*dT*d[5mC]*d[5mC]*eA*eG*eG*eA*e[5mC]) [compound 771811]	50%		% inhibition of SMAD7 mRNA expression [2]: 48%
771812 (antisense eT*eT*eA*eA*e[5mC]*d[5mC]*d[5mC]*d[5mC]*dT*dG*d[5mC]*d[5mC]*dG*dG*dA*e[5mC]*eT*eG*e[5mC]*e[5mC]) [compound 771812]	26%		
771813 (antisense eT*e[5mC]*eT*eT*eG*dT*d[5mC]*dT*dG*dG*d[5mC]*d[5mC]*dG*dG*d[5mC]*eA*eG*eA*eG*e[5mC]) [compound 771813]			% inhibition of SMAD7 mRNA expression [3]: 38%
771814 (antisense eT*e[5mC]*e[5mC]*e[5mC]*eT*dT*dT*dG*d[5mC]*dT*dG*dG*d[5mC]*d[5mC]*d[5mC]*eA*eG*eT*eT*e[5mC]) [compound 771814]	39%		
771816 (antisense eA*eT*e[5mC]*e[5mC]*eA*dA*d[5mC]*dT*dA*d[5mC]*dT*d[5mC]*dA*dG*dA*eG*eG*e[5mC]*eT*eG) [compound 771816]		27%	% Inhibition of SMAD7 mRNA [1]: 28%
771817 (antisense eG*eG*eA*eA*eT*dT*dA*dT*dG*dA*d[5mC]*dA*d[5mC]*dA*dG*eT*eA*eA*e[5mC]*eA) [compound 771817]		19%	
771818 (antisense eT*eG*eA*eA*eG*dA*d[5mC]*dA*dA*d[5mC]*dT*dG*d[5mC]*dT*dT*eT*eG*eA*eG*eA) [compound 771818]		38%	
771819 (antisense eA*eA*eT*eA*eG*dT*dT*dT*dT*d[5mC]*dT*d[5mC]*dT*d[5mC]*dA*eA*eA*eT*eG*eT) [compound 771819]	20%		% inhibition of SMAD7 mRNA expression [2]: 56%
771823 (antisense e[5mC]*eT*eT*e[5mC]*e[5mC]*d[5mC]*dA*dT*dG*dT*dG*dA*d[5mC]*d[5mC]*dT*e[5mC]*eA*eG*eG*eG) [compound 771823]	49%		
771824 (antisense eT*eT*e[5mC]*eT*eA*d[5mC]*dT*dA*dG*dA*dA*dA*dA*dA*dA*eA*eT*eT*eA*eG) [compound 771824]		0%	% Inhibition of SMAD7 mRNA [1]: 3%
771826 (antisense e[5mC]*eA*e[5mC]*e[5mC]*eA*dT*d[5mC]*d[5mC]*dT*dG*dG*dT*dT*d[5mC]*dG*e[5mC]*eA*eG*eT*e[5mC]) [compound 771826]		31%	
771827 (antisense eA*eA*eG*eG*eA*d[5mC]*dA*dT*d[5mC]*dA*d[5mC]*dA*dG*dG*dG*eA*e[5mC]*eT*eG*eG) [compound 771827]	33%		% inhibition of SMAD7 mRNA expression [2]: 31%
771828 (antisense eG*e[5mC]*e[5mC]*e[5mC]*eT*dA*dG*dA*dA*d[5mC]*dT*dT*dG*dG*dG*e[5mC]*eA*eA*eG*eG) [compound 771828]	8%		
771829 (antisense eT*eG*eT*eG*e[5mC]*d[5mC]*dT*d[5mC]*dA*dG*d[5mC]*dA*dG*dT*dT*eA*eA*eT*eA*eA) [compound 771829]			% inhibition of SMAD7 mRNA expression [3]: 14%
771830 (antisense eT*eT*eT*eA*eG*dG*dT*dA*dG*dA*dG*dT*dG*dG*d[5mC]*e[5mC]*eG*eG*eG*eA) [compound 771830]	40%		
771832 (antisense eA*e[5mC]*e[5mC]*eT*eT*dT*d[5mC]*dA*d[5mC]*dG*dA*dA*d[5mC]*d[5mC]*dA*e[5mC]*eT*eT*eT*eT) [compound 771832]		11%	% Inhibition of SMAD7 mRNA [1]: 31%
771833 (antisense eT*eT*eA*eA*eA*dG*dA*dA*dA*dA*dT*dG*dG*d[5mC]*d[5mC]*eT*eA*e[5mC]*eA*eT) [compound 771833]		21%	
